Source: patent publication US20250287987A1, “AEROSOLISABLE MATERIAL” (NICOVENTURES TRADING LIMITED, priority 2022, published 2025)

Assay: physchem
From the text: LogP is the partition coefficient of a molecule between aqueous and lipophilic phases, usually considered as octanol and water. As referred to herein, the LogP of specific terpenes can be determined using the “slow-stirring” method, wherein water, 1-octanol and the test substance are equilibrated in a thermostated stirred reactor. Exchange between the phases is accelerated by stirring. The stirring introduces limited turbulence which enhances the exchange between 1-octanol and water without microdroplets being formed. A suitable “slow-stirring” method is: Test No. 123: Partition Coefficient (1-Octanol/Water): Slow-Stirring Method, 30 Jun. 2022, OECD Guidelines for the Testing of Chemicals.

| logP (LogP) | Compound | also measured |
| --- | --- | --- |
| 3.56 | CC(C)=CCCC(C)CCO (stereo not drawn) [Beta-citronellol] |  |
|  | C=C(C)[C@H]1CC=C(C)CC1 [Limonene] | logP (octanol/water): 4.4 |
|  | C=CC(C)(CCC=C(C)C)OC(C)=O (stereo not shown) [Linalyl acetate] | logP: 3.92 |
| > 6.4 | C=C1CC/C=C(\C)CC[C@@H]2[C@@H]1CC2(C)C [beta-caryophyllene] |  |
